How the values were obtained:
[1] = human subjects; cited from earlier work
[2] = test system: LNCaP cells; assay: Co-transfection luciferase assay with 10 nM R1881 (Example 2); format: cell-based, human; details: charcoal-stripped serum
Description: We performed transient transfections 24 hours later using Tfx-50 (Promega) with a lipid:DNA ratio of 4:1. Each transfection mixture contained 0.5 μg of the effector and reporter plasmids or reporter plasmid alone with pGL3B carrier DNA. Methylenetrienolone (R1881; NEN Life Science Products, Boston, Mass.) was added to the medium at a concentration of 10 nM/well one hour following transfection, and the cells were incubated for 48 h. The cells were harvested and lysed using the passive lysis buffer provided in the assay kit for measuring FL activities (Dual-Reporter Luciferase Assay System, Promega).

SMILES: Nc1nc(=O)c2ncn(CCC(CO)C[18F])c2[nH]1 (stereo not drawn) [[^18F]FHBG, 9-(4-[18F]-fluoro-3-hydroxymethylbutyl)guanine]
- blood-brain-barrier penetration [1]: does not significantly cross the blood-brain-barrier

SMILES: O=c1[nH]c(=O)n([C@@H]2O[C@H](CO)[C@@H](O)[C@@H]2F)cc1[125I] [[^124I]FIAU, 2′-fluoro-2′-deoxy-1-β-D-arabinofuranosyl-5-iodo-uracil]
- blood-brain-barrier penetration [1]: cannot penetrate the blood brain barrier

SMILES: CC(O)(CS(=O)(=O)c1ccc(F)cc1)C(=O)Nc1ccc(C#N)c(C(F)(F)F)c1 (stereo not drawn) [casodex, reference compound]
- basal activity of the PSA enhancer constructs [2]: further reduced

From US7527942B2, “Transcription amplification system for molecular imaging” (The Regents of the University of California, priority 2002, dated 2009)
